Assay results: patent US6528517B1, “Synthesis of quinobenzoxazine analogues with topoisomerase II and quadruplex interactions for use as antineoplastic agents” (Board of Regents, The University of Texas System, priority 1998, dated 2003)

Biological target: T1, topo II-DNA complex (Drosophila melanogaster, UniProt P15348)
T1 construct: purchased Amersham
T1 sequence (P15348 1-1447): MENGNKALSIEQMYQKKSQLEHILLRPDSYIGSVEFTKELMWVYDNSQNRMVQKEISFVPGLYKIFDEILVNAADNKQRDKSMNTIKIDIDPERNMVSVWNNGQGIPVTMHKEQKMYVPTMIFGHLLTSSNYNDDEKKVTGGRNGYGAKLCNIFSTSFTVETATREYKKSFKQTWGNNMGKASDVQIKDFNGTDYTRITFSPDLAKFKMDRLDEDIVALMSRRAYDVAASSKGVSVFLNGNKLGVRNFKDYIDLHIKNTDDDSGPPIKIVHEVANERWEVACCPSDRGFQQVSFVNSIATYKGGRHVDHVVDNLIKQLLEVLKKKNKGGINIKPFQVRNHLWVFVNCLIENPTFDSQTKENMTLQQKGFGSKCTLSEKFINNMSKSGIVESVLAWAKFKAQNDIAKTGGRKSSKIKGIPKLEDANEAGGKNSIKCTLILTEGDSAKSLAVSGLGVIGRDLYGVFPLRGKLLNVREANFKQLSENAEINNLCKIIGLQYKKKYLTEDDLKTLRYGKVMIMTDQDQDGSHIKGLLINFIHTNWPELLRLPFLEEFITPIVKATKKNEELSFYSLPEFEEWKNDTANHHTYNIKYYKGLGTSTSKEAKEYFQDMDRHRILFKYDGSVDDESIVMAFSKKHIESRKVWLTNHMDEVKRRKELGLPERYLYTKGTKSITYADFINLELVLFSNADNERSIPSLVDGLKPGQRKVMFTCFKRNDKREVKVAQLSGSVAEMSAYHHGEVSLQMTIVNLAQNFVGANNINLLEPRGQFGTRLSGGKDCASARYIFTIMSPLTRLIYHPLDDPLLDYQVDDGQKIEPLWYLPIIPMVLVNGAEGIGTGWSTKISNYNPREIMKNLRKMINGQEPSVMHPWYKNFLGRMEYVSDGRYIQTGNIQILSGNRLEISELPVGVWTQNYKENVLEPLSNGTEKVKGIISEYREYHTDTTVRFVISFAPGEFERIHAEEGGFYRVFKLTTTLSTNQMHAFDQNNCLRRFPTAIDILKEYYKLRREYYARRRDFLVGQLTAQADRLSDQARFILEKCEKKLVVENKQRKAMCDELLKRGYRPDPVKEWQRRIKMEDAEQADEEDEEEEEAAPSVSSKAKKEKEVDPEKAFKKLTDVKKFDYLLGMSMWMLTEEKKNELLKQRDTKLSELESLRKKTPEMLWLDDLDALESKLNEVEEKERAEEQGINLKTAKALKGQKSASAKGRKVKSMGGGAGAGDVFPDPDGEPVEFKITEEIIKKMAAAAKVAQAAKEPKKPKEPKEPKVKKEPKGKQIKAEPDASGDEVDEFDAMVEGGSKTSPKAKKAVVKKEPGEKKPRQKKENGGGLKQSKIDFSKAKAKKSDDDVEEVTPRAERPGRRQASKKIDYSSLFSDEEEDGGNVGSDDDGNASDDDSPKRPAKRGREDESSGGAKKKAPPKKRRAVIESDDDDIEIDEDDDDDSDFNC
Assay: Psorospermin competition study (DNA strand breakage assay)
Format: biochemical
Method: 5′^32P-labeled DNA was incubated with Drosophila topo II in the same buffer as the one in the topo II cleavage reaction in the presence of various amounts of either A-62176, Norfloxacin, or both. The incubation reactions took place at 30° C. for 10 min before 10 μM (final concentration) of psorospermin was added to the mixtures. The reactions were continued for an additional 5 min and then terminated by adding 5 μg of calf thymus DNA, followed by heating at 95° C. for 15 min. In the presence of piperidine, this procedure induces strand breakage at the drug modification sites (Hansen et al., 1996). The samples were subjected to phenol/chloroform extraction followed by ethanol precipitation.
In the presence of topo II, the reactivity of psorospermin is enhanced more than 40-fold with the guanine at the +4′ position at site B in FIG. 7 (Kwok et al., 1998a and 1998b). A DNA strand breakage assay was used to locate the position of alkylation of DNA by the epoxide of psorospermin upon intercalation to the base pairs between the +1 and +2 positions at site B within the topo II-DNA complex (Kwok et al., 1998a). Psorospermin has subsequently been used to probe the binding sites for m-AMSA (Kwok et al., 1998a). In the present study, this same assay was performed to determine the binding site of A-62176 on DNA in the presence of topo II.

psorospermin alkylation at site B (competition) (0.5-10 μM drug, psorospermin, topo II present): decreased
inhibition of psorospermin alkylation, in combination with Norfloxacin (after subtracting the enhancement by Norfloxacin alone): additive effect
SMILES: N[C@H]1CCN(c2c(F)cc3c(=O)c(C(=O)O)cn4c3c2Oc2ccccc2-4)C1 [Compound A-62176, 1-(3-aminopyrrolidin-1-yl)-2-fluoro-4-oxo-4H-quino[2,3,4-i,j][1,4]benzoxazine-5-carboxylic acid, reference compound]
